Where a name gives a salt, the structure may show the parent alone. Read-outs that look alike come from different tables or passages of the source.
Legend:
[1] = system: T. b. rhodesiense STIB-900 strain; assay: T. b. rhodesiense growth assay (resazurin, 3 days); assay type: cell-based, Trypanosoma brucei rhodesiense
Experimental: (§1) The MRC-5SV2 human lung fibroblast cell line was cultured in MEM + Earle’s salts-medium, supplemented with 2 mM L-glutamine, 16.5 mM NaHCO3, and 5% inactivated fetal calf serum. For evaluating the antileishmanial activity, the L. infantum MHOM/MA(BE)/67 strain was used. This strain was maintained in a Golden hamster (Mesocricetus auratus). Amastigotes were collected from the spleen of an infected donor hamster using differential centrifugation. Primary peritoneal mouse macrophages were used as host cells and were collected 2 days after peritoneal stimulation with a 2% potato starch suspension. For the intracellular T. cruzi assays, the Tulahuen CL2 strain was used that expresses β-galactosidase. The strain was maintained in MRC-5SV2 cells in MEM medium. The T. b. brucei Squib 427 strain or T. b. rhodesiense STIB-900 strain was used for screening against the extracellular African trypanosomes. The strains were maintained in Hirumi’s Modified Iscove’s medium-9 (HMI-9), supplemented with 10% inactivated fetal calf serum. All cultures and assays were performed at 37 °C with 5% CO2.
(§2) Compound stock solutions were prepared in 100% DMSO at 20 mM. The compounds were serially pre-diluted by robotic plate production (4-fold) in DMSO followed by a further (intermediate) dilution in demineralized water to assure a final in-test DMSO concentration of <1%. Identical test plates containing 10 µL of the different concentrations of each compound were produced for the different assays. For the cytotoxicity assays, 5 concentrations per compound were tested (64–16–4–1–0.25 µM). For the parasitic assays, 10 concentrations per compound were tested, ranging from 64 µM to 0.2 nM.
(§3) Parasite suspensions (1.5 × 10^4 T. b. brucei/well or 4 × 10^3 T. b. rhodesiense/well) in HMI-9 medium were exposed in a total volume of 200 µL to 10 µL of the compound dilutions Parasite growth was assessed fluorimetrically after 3 days of incubation by the addition of 50 µL resazurin per well. After 6 h (T. b. rhodesiense) or 24 h (T. b. brucei) at 37 °C, fluorescence was measured (λex 550 nm, λem 590 nm), from which viability and EC50 values could be determined.

[2] = system: primary mouse macrophages (PMMs); assay: Cytotoxicity against primary peritoneal mouse macrophages (PMM); assay type: cell-based; details: Macrophage
Experimental: (§4) The series of final products (13–69) was investigated in vitro on the human fetal lung fibroblast cell line MRC-5 (Table 1) to assess cytotoxicity toward normal (i.e., non-malignant) human cells. […] As explained earlier, these are important pathogens for humans or cattle (T. b. brucei) and a persistent need for new therapeutics exists for these parasites. As a part of the antiparasitic tests, cytotoxicity against primary mouse macrophages (PMMs) was also evaluated. These murine cells serve as host cells for parasites in the L. infantum assay. Therefore, the murine macrophage assay not only offers additional cytotoxicological insight but is also essential to interpreting the readout of the L. infantum assay.
as §1
(§5) Primary peritoneal mouse macrophages (PMMs) were prepared in RPMI-1640 medium, supplemented with 2 mM L-glutamine, 16.5 mM NaHCO3, and 5% inactivated fetal calf serum. The macrophages are infected after 48 h with spleen-derived L. infantum amastigotes (3 × 10^4 PMM + 4.5 × 10^5 parasites/well). The compounds were added after 2 h of infection. After 5 days incubation, parasite burdens (mean number of amastigotes/macrophage) were assessed microscopically after staining with a 10% Giemsa solution and EC50 values were calculated.

[3] = system: Trypanosoma cruzi Tulahuen CL2 strain; assay: Intracellular T. cruzi assay in MRC-5 cells (β-galactosidase/CPRG, 7 days); assay type: cell-based; details: intracellular in MRC-5 cells
Experimental: as §1, §2
MRC-5 cells were infected in 96-well plates using a harvested T. cruzi inoculum (4 × 10^3 MRC-5 cells/well + 4 × 10^4 parasites/well) and exposed to 10 µL of the compound dilutions (200 µL/well total volume). Parasite growth determined after 7 days of incubation and compared to untreated infected controls following the addition of the substrate CPRG (chlorophenolred ß-D-galactopyranoside): 50 µL/well of a stock solution containing 15.2 mg CPRG + 250 µL Nonidet in 100 mL PBS. The absorbance was measured spectrophotometrically at 540 nm after 4 h incubation at 37 °C and EC50 values were calculated.

[4] = Cytotoxicity assay, MRC-5SV2 cells, resazurin, 3 days; assay type: cell-based; details: human, MRC-5SV2 human lung fibroblast cells, MRC-5 cells, highest concentration 64 µM
Experimental: as §4, §1, §2
Assays were performed in sterile 96-well microtiter plates, each well containing 10 µL of the watery compound dilutions together with 190 µL of MRC-5SV2 inoculum (1.5 × 10^5 cells/mL). Cell growth was compared to untreated control wells (100% cell growth) and medium-control wells (0% cell growth). After 3 days incubation, MRC-5 viability was assessed fluorimetrically after addition of 50 μL resazurin per well (final concentration of 10 µg mL^−1). After 4 h at 37 °C, fluorescence was measured (λex 550 nm, λem 590 nm). The results were expressed as % reduction in cell growth/viability compared to positive (100% growth–0% inhibition) and negative (0% growth–100% inhibition) control wells from which EC50 values (50% effective concentrations) were derived using an excel macro that calculates the interpolation of the concentrations corresponding to the flanking points, just above and just below 50% inhibition.

[5] = system: T. b. brucei Squib 427 strain; assay: T. b. brucei growth assay (resazurin, 3 days); assay type: cell-based, Trypanosoma brucei brucei
Experimental: as §1, §2, §3

[6] = system: L. infantum MHOM/MA(BE)/67 strain; assay: L. infantum intracellular amastigote assay in PMM (Giemsa, 5 days); assay type: cell-based, Leishmania infantum
Experimental: as §1, §2, §5

[7] = Trypanosoma brucei, RHODESIENSE, 72 h, 3 days, read-out: T. b. rhod. (EC50)
[8] = Trypanosoma cruzi, TULAHUEN, MRC5, 168 h
[9] = Trypanosoma brucei, 72 h, 3 days, read-out: T. b. bruc. (EC50)
[10] = Leishmania infantum, 120 h, amastigotes in PMM, 5 days, read-out: L. inf. (EC50)
[11] = amastigotes in PMM, 5 days, read-out: L. inf. (EC50)
[12] = Trypanosoma brucei, RHODESIENSE, 72 h, read-out: T. b. rhod. (EC50, µM), 3 days
[13] = Trypanosoma brucei, 72 h, read-out: T. b. bruc. (EC50, µM), 3 days
[14] = Leishmania infantum, 120 h, read-out: L. inf. (EC50, µM), amastigotes in PMM, 5 days

Compound | EC50 [1, 7] | EC50 [2] | EC50 [3, 8] | EC50 at 3 days [4] | EC50 [5, 9] | EC50 [6, 10] | EC50 ([1]; 3 days, read-out: T. b. rhod. (EC50)) | EC50 ([5]; 3 days, read-out: T. b. bruc. (EC50)) | EC50 [6, 11] | EC50 [1, 12] | EC50 [5, 13] | EC50 [6, 14] | EC50 [3] | EC50 ([6]; read-out: L. inf. (EC50), amastigotes in PMM, 5 days) | selectivity index ([1]; T. b. rhodesiense versus cytotoxicity)
c1ccc(NCc2cn(-c3ccccc3)nc2-c2ccc3c(c2)OCCO3)cc1 [Compound 13, N-((3-(2,3-dihydrobenzo[b][1,4]dioxin-6-yl)-1-phenyl-1H-pyrazol-4-yl)methyl)aniline] | 7.32 µM | > 64 µM | 2.23 µM | > 64 µM | 31.4 µM | 10.8 µM | – | – | – | – | – | – | – | – | –
Fc1ccc(NCc2cn(-c3ccccc3)nc2-c2ccc3c(c2)OCCO3)cc1 [Compound 14, N-((3-(2,3-dihydrobenzo[b][1,4]dioxin-6-yl)-1-phenyl-1H-pyrazol-4-yl)methyl)-4-fluoroaniline] | < 10 µM | > 64 µM | – | > 64 µM | < 10 µM | < 10 µM | 6.35 µM | 8.18 µM | 6.96 µM | – | – | – | – | – | –
CNC(=O)c1ccc(NCc2cn(-c3ccccc3)nc2-c2ccc3c(c2)OCCO3)cn1 [Compound 18, 5-(((3-(2,3-dihydrobenzo[b][1,4]dioxin-6-yl)-1-phenyl-1H-pyrazol-4-yl)methyl)amino)-N-methylpicolinamide] | > 64 µM | 32 µM | > 64 µM | 49.9 µM | > 64 µM | 9.19 µM | – | – | – | – | – | – | – | – | –
c1ccc(-n2cc(CNCCc3ccncc3)c(-c3ccc4c(c3)OCCO4)n2)cc1 [Compound 19, N-((3-(2,3-dihydrobenzo[b][1,4]dioxin-6-yl)-1-phenyl-1H-pyrazol-4-yl)methyl)-2-(pyridin-4-yl)ethan-1-amine hydrochloride] | – | 32 µM | 7.46 µM | 20.2 µM | – | – | – | – | – | 1.72 µM | 6.27 µM | 20.3 µM | – | – | –
c1ccc(-n2cc(CNCCc3ccccn3)c(-c3ccc4c(c3)OCCO4)n2)cc1 [Compound 21, N-((3-(2,3-dihydrobenzo[b][1,4]dioxin-6-yl)-1-phenyl-1H-pyrazol-4-yl)methyl)-2-(pyridin-2-yl)ethan-1-amine hydrochloride] | – | 32 µM | < 10 µM | 29.1 µM | – | – | – | – | – | – | – | < 10 µM | 7.31 µM | 5.06 µM | –
CNC(=O)c1cc(Oc2ccc(NCc3cn(-c4ccccc4)nc3-c3ccc4c(c3)OCCO4)cc2)ccn1 [Compound 22, 4-(4-(((3-(2,3-dihydrobenzo[b][1,4]dioxin-6-yl)-1-phenyl-1H-pyrazol-4-yl)methyl)amino)phenoxy)-N-methylpicolinamide] | 0.74 µM | > 64 µM | > 64 µM | > 64 µM | 2.22 µM | > 64 µM | – | – | – | – | – | – | – | – | 86
c1ccc(-n2cc(CNCCN3CCOCC3)c(-c3ccc4c(c3)OCCO4)n2)cc1 [Compound 28, N-((3-(2,3-dihydrobenzo[b][1,4]dioxin-6-yl)-1-phenyl-1H-pyrazol-4-yl)methyl)-2-morpholinoethan-1-amine dihydrochloride] | – | 32 µM | 30.3 µM | 29.4 µM | – | – | – | – | – | 6.27 µM | 7.08 µM | 32.5 µM | – | – | –
O=C(Nc1ccc(F)cc1)c1cn(-c2ccccc2)nc1-c1ccc2c(c1)OCCO2 [Compound 31, 3-(2,3-dihydrobenzo[b][1,4]dioxin-6-yl)-N-(4-fluorophenyl)-1-phenyl-1H-pyrazole-4-carboxamide] | 3.12 µM | > 64 µM | 7.38 µM | > 64 µM | 6.73 µM | > 64 µM | – | – | – | – | – | – | – | – | –
O=C(NCc1ccccc1)c1cn(-c2ccccc2)nc1-c1ccc2c(c1)OCCO2 [Compound 32, N-benzyl-3-(2,3-dihydrobenzo[b][1,4]dioxin-6-yl)-1-phenyl-1H-pyrazole-4-carboxamide] | 4.86 µM | > 64 µM | 6.79 µM | > 64 µM | 24.1 µM | 12.7 µM | – | – | – | – | – | – | – | – | –
O=C(NCc1ccc(F)cc1)c1cn(-c2ccccc2)nc1-c1ccc2c(c1)OCCO2 [Compound 33, 3-(2,3-dihydrobenzo[b][1,4]dioxin-6-yl)-N-(4-fluorobenzyl)-1-phenyl-1H-pyrazole-4-carboxamide] | 4.23 µM | > 64 µM | > 64 µM | 64 µM | > 64 µM | 8.3 µM | – | – | 9.51 µM | – | – | – | – | – | –
O=C(NCCc1ccncc1)c1cn(-c2ccccc2)nc1-c1ccc2c(c1)OCCO2 [Compound 35, 3-(2,3-dihydrobenzo[b][1,4]dioxin-6-yl)-1-phenyl-N-(2-(pyridin-4-yl)ethyl)-1H-pyrazole-4-carboxamide] | 1.28 µM | > 64 µM | 4.33 µM | > 64 µM | 23.2 µM | > 64 µM | – | – | – | – | – | – | – | – | –
O=C(NCCc1cccnc1)c1cn(-c2ccccc2)nc1-c1ccc2c(c1)OCCO2 [Compound 36, 3-(2,3-dihydrobenzo[b][1,4]dioxin-6-yl)-1-phenyl-N-(2-(pyridin-3-yl)ethyl)-1H-pyrazole-4-carboxamide] | 4 µM | > 64 µM | 4.56 µM | 45 µM | 19.4 µM | 45.2 µM | – | – | – | – | – | – | – | – | –
O=C(NCCc1ccccn1)c1cn(-c2ccccc2)nc1-c1ccc2c(c1)OCCO2 [Compound 37, 3-(2,3-dihydrobenzo[b][1,4]dioxin-6-yl)-1-phenyl-N-(2-(pyridin-2-yl)ethyl)-1H-pyrazole-4-carboxamide] | 2.96 µM | > 64 µM | 13.1 µM | 32 µM | 20.2 µM | > 64 µM | – | – | – | – | – | – | – | – | –
c1ccc(-n2cc(CNCCN3CCCC3)c(-c3ccc4c(c3)OCCO4)n2)nc1 [Compound 69, N-((3-(2,3-dihydrobenzo[b][1,4]dioxin-6-yl)-1-(pyridin-2-yl)-1H-pyrazol-4-yl)methyl)-2-(pyrrolidin-1-yl)ethan-1-amine dihydrochloride] | – | – | > 64 µM | > 64 µM | – | – | – | – | – | 24.8 µM | 22.7 µM | > 64 µM | – | – | –

Reference: article PMC11487390, “Design and Synthesis of 1,3-Diarylpyrazoles and Investigation of Their Cytotoxicity and Antiparasitic Profile” (International Journal of Molecular Sciences, 2024)
